The values below come from patent US20220226321A1, “INHIBITOR OF MNK FOR THE TREATMENT OF NEUROPATHIC PAIN” (Board of Regents, The University of Texas System, priority 2019, published 2022).

The test system of experiment [1] is cultured mouse DRG neurons. As to the kind of experiment: microelectrode array (MEA) recordings of cultured DRG neurons exposed to IL-6. Type of experiment: cell-based. To be noted: for spontaneous firing: IL-6 100 ng/ml, tomivosertib 25 nM co-treatment. On the procedure:
Extracellular electrophysiology. Substrate-integrated microelectrode array (MEA) recordings were performed using PDL and laminin pre-treated 12-well MEA plates (Axion Biosystems, USA) and an Axion Maestro recording system. DRG sensory neurons were dissected, dissociated, and seeded as previously described (Moy et al., 2017). […] Cultures were maintained at 37° C., 5% CO2, and ≥90% humidity throughout the recordings. Briefly, 30 min baseline recordings were carried out following a 30 min acclimation period. […] Recordings were then collected continuously for 3 hours. […] Online and offline MEA data analysis was performed using Axion's AxIS, NeuralMetrics Tools, and NeuroExplorer (NeuroExplorer, USA). Physiologically relevant extracellular action potentials were defined as previously described^29.

The test system of experiment [2] is cultured mouse DRG neurons. Put plainly: Western blot of cultured primary DRG neurons treated with eFT508. Type of experiment: cell-based. For orientation: A western blot detects proteins with antibodies after separation by electrophoresis.
A further experiment relates to DLBCL cell lines. To be noted: cited from earlier work.

As for `Cc1cc(Nc2cc(N)ncn2)c(=O)n2c1C(=O)NC21CCCCC1` [eFT508, Tomivosertib], the “firing, tomivosertib only vs IL-6 only group” value in experiment [1] (25 nM) was “reduction in firing”. Moreover, the spontaneous firing result in experiment [1] (listed as Tomivosertib) was “significantly reduced”. Besides, in experiment [1] (listed as tomivosertib), the spontaneous firing entry is recorded as “attenuated”. In addition, the “firing rate at treatment time points vs baseline recording” value in experiment [1] (tomivosertib only group) is reported as “no significant difference in firing rate”. Further, in experiment [2] (1 μM for 1 hr), the RagA protein level entry was “decrease”. Further, in experiment [2] (0.1 and 1 μM, 1 hr), the “level of eIF4E phosphorylation” value is “significantly reduced” and the other signaling pathways entry is recorded as “without affecting other signaling pathways”. In experiment [2] (cultured DRGs neurons), the “reduction of eIF4E phosphorylation” value was 90%. For the same compound, the “production of pro-inflammatory cytokines including TNFα, IL-6, IL-10 and CXCL10” value in the experiment on DLBCL cell lines (TMD8, OCI-Ly3 and HBL1 DLBCL cell lines) is recorded as “dose-dependent decreases”. The “decrease in TNFα mRNA half-life” value with DLBCL cell lines was 2 fold. The anti-proliferative activity entry with DLBCL cell lines (multiple DLBCL cell lines) is reported as “anti-proliferative activity”.
